According to patent publication US12297240B2, “Peptide” (Kyoto University, priority 2015, dated 2025):

How the values were obtained:
[1] = system: ddY mice; experiment: Tail suspension test; type: in vivo
Experimental: (§1) The test was carried out (0 minutes) 30 minutes after administration of a test substance, and the immobility time during the period from 0 to 6 minutes was measured (FIG. 2).
(§2) When an antidepressant drug, such as imipramine, is administered, the immobility time is reduced. Thus, when a reduction in the immobility time is observed, it can be evaluated that the test substance has an antidepressant-like effect. Immobility is considered a despair state; therefore, a reduction in the immobility time also serves as an index for improvement of a despair state, i.e., enhancement of motivation.

[2] = system: ddY mice; experiment: Forced swim test; type: in vivo; details: 1 mg/kg or more orally; doses tested 0.3, 1 mg/kg (Example 5, FIG. 8)
Experimental: The test was carried out (0 minutes) 30 minutes after administration of a test substance, and the immobility time during the period from 0 to 8 minutes was measured (FIG. 2).
as §2, with “As in the tail suspension test, when” for “When”

[3] = system: ddY mice; experiment: Elevated plus-maze test (EPM); type: in vivo
Text: The elevated plus-maze includes two open arms (25×5 cm) and two closed arms (25×5×15 cm), which are joined to a central platform 50 cm high above the floor (see FIG. 3A). Because the closed arms are surrounded by walls, a mouse can safely walk in the closed arms in spite of the elevated position. On the other hand, because the open arms are not surrounded by walls, a mouse walking along the open arms feels anxious that it may fall from the elevated position. Thus, the more time the mouse spends in the open arms, or the greater the number of entries into the open arms, the less anxious the mouse feels. Thus, the anxiolytic activity is determined based on these indices.
Each mouse was placed on a portion of the central platform facing one of the open arms 30 minutes after the administration, and the test was started. During the 5-minute test time, the cumulative time spent in the open arms (time in open arms), the number of visits to the open arms (visit to open arms), and the total number of visits to any of the arms (total visits) were recorded. The percentage of time spent in the open arms and the percentage of the number of visits to the open arms were calculated as indices of anxiety.

[4] = system: ddY mice; experiment: Open field test; type: in vivo
Experimental: Similar to the case of the elevated plus-maze test, the higher the percentage of exploratory behaviors of a mouse in the center portion of a circle, the less anxious the mouse feels. Thus, the anxiolytic activity is determined based on this index.
Each mouse was placed in an open field 30 minutes after the administration, and the test was started. The percentage of exploratory behaviors in the center portion of the circle (the time spent in the center circle (open field) (Time in 12 cm circle) and the percentage of the number of visits to the center circle (Visits in 12 cm circle)) during the 5-minute test time were evaluated.

[5] = system: serotonin 5-HT1A, dopamine D1, and GABAA receptors; experiment: Tail suspension test in combination with receptor antagonists (mechanism of action); type: in vivo, mice; details: 0.3 mg/kg p.o. with WAY100135 10 mg/kg, SCH23390 30 μg/kg or bicuculline 30 mg/kg (Example 8, FIG. 11)
Experimental: as §1
(§3) The tail suspension test was performed using mice to which 30 mg/kg of the thermolysin digest of β-CG was orally administered (p.o.) in combination with each of the antagonists of various receptors. Three kinds of antagonists, i.e., WAY100135, which is an antagonist of the serotonin 5-HT1A receptor (dose: 10 mg/kg), SCH23390, which is an antagonist of the dopamine D1 receptor (dose: 30 μg/kg), and bicuculline, which is an antagonist of the GABA-A receptor (dose: 30 mg/kg), were used.
as §3, with “which 0.3” for “which 30”, “the peptide LSSTQAQQSY (SEQ ID NO: 1)” for “the thermolysin digest of β-CG”

With “LSSTQAQQSY (Designed peptide) [10-residue peptide from thermolysin digest of soybean β-conglycinin; synthesized by a standard method]” the immobility time ([1]; 0.3 mg/kg or more orally, doses tested 0.1, 0.3, 1, 3 mg/kg (Example 4, FIG. 7)) was “significantly reduced”, the immobility time ([1]; 0.3 mg/kg orally, C-terminal variants (Example 12, FIG. 16)) was “strongest immobility time reducing effect” and the immobility time ([1]; 0.3 mg/kg orally, structure-activity relationships (Example 6, FIG. 9)) was “strongest immobility time reducing effect”. For the same sequence, the immobility time [2] was “significantly reduced”, the “percentage of time spent in the open arms” value ([3]; 1 mg/kg orally, doses tested 0.1, 0.3, 1 mg/kg (Example 10, FIG. 14)) was “significantly increased” and the “total number of entries (amount of activities)” value ([3]; 0.1, 0.3 or 1 mg/kg (Example 10, FIG. 14)) was “no significant difference”. For the same sequence, the “number of visits to the center circle (open field)” value ([4]; 1 mg/kg orally (Example 11, FIG. 15)) was “significantly increased”, the “time spent in the center circle (open field)” value ([4]; 1 mg/kg orally, doses tested 0.1, 0.3, 1 mg/kg (Example 11, FIG. 15)) was “significantly increased” and the amount of activities ([4]; 0.1, 0.3 or 1 mg/kg (Example 11, FIG. 15)) was “no significant difference”. The “reduction in the immobility time in combination with antagonists” value [5] was “significantly suppressed”.
